Assay type in all cases: functional
The subject of experiment [1] is Tobacco mosaic virus. Description: Antiviral activity against Tobacco mosaic virus (TMV) inoculated on whole Nicotiana tabacum leaves followed by smearing with 100 ug/mL compound solution on left side of leaves assessed as viral infection curative effect measured 3 to 4 days post viral infection.
Experiment [2] has as its system Tobacco mosaic virus. The experiment in a line: Antiviral activity against Tobacco mosaic virus (TMV) inoculated on whole Nicotiana tabacum leaves followed by smearing with 500 ug/mL compound solution on left side of leaves assessed as viral infection curative effect measured 3 to 4 days post viral infection.
Experiment [3] relates to Tobacco mosaic virus. The experiment in a line: Antiviral activity against Tobacco mosaic virus (TMV) pre-treated with 100 ug/mL compound for 30 min followed by inoculation on left side of Nicotiana tabacum leaves assessed as virus inactivation effect measured 3 to 4 days post viral infection.
For experiment [4], the system named is Tobacco mosaic virus. The experiment in a line: Antiviral activity against Tobacco mosaic virus (TMV) pre-treated with 500 ug/mL compound for 30 min followed by inoculation on left side of Nicotiana tabacum leaves assessed as virus inactivation effect measured 3 to 4 days post viral infection.
Experiment [5] relates to Tobacco mosaic virus. Description: Antiviral activity against Tobacco mosaic virus (TMV) inoculated on 100 ug/mL compound smeared Nicotiana tabacum leaves assessed as protective effect against viral infection measured 3 to 4 days post viral infection.
Experiment [6] deals with Tobacco mosaic virus. Description: Antiviral activity against Tobacco mosaic virus (TMV) inoculated on 500 ug/mL compound smeared Nicotiana tabacum leaves assessed as protective effect against viral infection measured 3 to 4 days post viral infection.

These results are taken from ChEMBL document CHEMBL3044934, “Design, synthesis, and antiviral evaluation of phenanthrene-based tylophorine derivatives as potential antiviral agents” (2010).

For the molecule `COc1cc2cc(CN3CCC[C@H]3CO)c3cc(OC)c(OC)cc3c2cc1OC`, the Activity came to 13.4% with Tobacco mosaic virus [1]; 34.6% with Tobacco mosaic virus [2]; 36.9% in the experiment on Tobacco mosaic virus [3]; 74.2% in the experiment on Tobacco mosaic virus [4]; 10.4% with Tobacco mosaic virus [5]; 19.2% with Tobacco mosaic virus [6].

For the molecule `COC(=O)[C@@H]1CCCN1C(=O)c1cc2cc(OC)c(OC)cc2c2cc(OC)c(OC)cc12`, the Activity with Tobacco mosaic virus [1] was determined as 10.6%; in the experiment on Tobacco mosaic virus [2], 64.6%; with Tobacco mosaic virus [3], 8%; in the experiment with Tobacco mosaic virus [4] it was 8.4%; in the experiment on Tobacco mosaic virus [5], 19.2%; with Tobacco mosaic virus [6] it was 56.7%.

As for `COc1cc2cc(CN3CCCCC3C(=O)O)c3cc(OC)c(OC)cc3c2cc1OC` (stereo not drawn), the Activity in the experiment with Tobacco mosaic virus [1] is listed as 28.9%; in the experiment on Tobacco mosaic virus [2], 45.1%; in the experiment with Tobacco mosaic virus [3] it was 38.7%; with Tobacco mosaic virus [4], 68.9%; in the experiment with Tobacco mosaic virus [5], 10%; in the experiment with Tobacco mosaic virus [6] it was 12.9%.

Turning to `COC(=O)C1CCCCN1Cc1cc2cc(OC)c(OC)cc2c2cc(OC)c(OC)cc12` (stereo not drawn), the Activity in the experiment with Tobacco mosaic virus [1] is recorded as 1.2%; with Tobacco mosaic virus [2] it was 11.8%; with Tobacco mosaic virus [3], 50.2%; in the experiment with Tobacco mosaic virus [4] it was 59.1%; in the experiment with Tobacco mosaic virus [5] it was 27.1%; with Tobacco mosaic virus [6] it was 64.6%.

Regarding `COC(=O)C1CCCCN1C(=O)c1cc2cc(OC)c(OC)cc2c2cc(OC)c(OC)cc12` (stereo not drawn), the Activity with Tobacco mosaic virus [1] stood at 4.9%; with Tobacco mosaic virus [2] it was 17.9%; in the experiment on Tobacco mosaic virus [3], 4.4%; in the experiment on Tobacco mosaic virus [4] it was 17.3%; in the experiment on Tobacco mosaic virus [5], 12.5%; in the experiment on Tobacco mosaic virus [6], 56.3%.

With `COc1cc2cc(CN3CCC[C@H]3C(=O)O)c3cc(OC)c(OC)cc3c2cc1OC`, the Activity in the experiment with Tobacco mosaic virus [1] amounted to 14.2%; in the experiment with Tobacco mosaic virus [2], 54.1%; in the experiment with Tobacco mosaic virus [3] it was 21.3%; with Tobacco mosaic virus [4], 39.6%; in the experiment with Tobacco mosaic virus [5] it was 23.3%; with Tobacco mosaic virus [6], 35.4%.

As for `COC(=O)[C@@H]1CCCN1Cc1cc2cc(OC)c(OC)cc2c2cc(OC)c(OC)cc12`, the Activity in the experiment with Tobacco mosaic virus [1] came out at 2.9%; in the experiment on Tobacco mosaic virus [2] it was 33.7%; in the experiment on Tobacco mosaic virus [3], 54.7%; with Tobacco mosaic virus [4], 80%; in the experiment with Tobacco mosaic virus [5], 38.3%; in the experiment with Tobacco mosaic virus [6] it was 47.1%.

On to `COc1cc2cc(CN3CCCCC3CO)c3cc(OC)c(OC)cc3c2cc1OC` (stereo not drawn), for which the Activity came out at 36.2% in the experiment on Tobacco mosaic virus [1]; 46.8% in the experiment on Tobacco mosaic virus [2]; 5.2% in the experiment on Tobacco mosaic virus [3]; 8.4% in the experiment on Tobacco mosaic virus [4]; 4.6% in the experiment on Tobacco mosaic virus [5]; 21.3% with Tobacco mosaic virus [6].

On to `COc1cc2cc(CN3CCC(O)CC3)c3cc(OC)c(OC)cc3c2cc1OC`, for which the Activity in the experiment on Tobacco mosaic virus [1] turned out to be 33.7%; in the experiment with Tobacco mosaic virus [2], 37.4%; in the experiment with Tobacco mosaic virus [3], 9.3%; with Tobacco mosaic virus [4], 71.1%; with Tobacco mosaic virus [5], 11.3%; in the experiment with Tobacco mosaic virus [6], 70.8%.

In the case of `COC(=O)CCCCCNC(=O)c1cc2cc(OC)c(OC)cc2c2cc(OC)c(OC)cc12`, the Activity in the experiment on Tobacco mosaic virus [1] was found to be 48%; in the experiment with Tobacco mosaic virus [2], 65.9%; in the experiment with Tobacco mosaic virus [3], 5.8%; with Tobacco mosaic virus [4], 6.7%; with Tobacco mosaic virus [5], 14.2%; in the experiment on Tobacco mosaic virus [6] it was 54.6%.

With `COc1cc2cc(C(=O)NCCCCCCO)c3cc(OC)c(OC)cc3c2cc1OC`, the Activity was determined as 49.6% in the experiment on Tobacco mosaic virus [1]; 65% with Tobacco mosaic virus [2]; 57.8% in the experiment with Tobacco mosaic virus [3]; 60.9% in the experiment with Tobacco mosaic virus [4]; 22.5% in the experiment on Tobacco mosaic virus [5]; 41.7% with Tobacco mosaic virus [6].

`CNCC(=O)N[C@@H](CO)C(=O)N[C@H]1[C@H](O)[C@@H](O)[C@H](n2ccc(N)nc2=O)O[C@@H]1C(N)=O` [NINGNANMYCIN]: the Activity with Tobacco mosaic virus [1] came out at 39%; in the experiment on Tobacco mosaic virus [2], 47.9%; in the experiment on Tobacco mosaic virus [3], 48%; with Tobacco mosaic virus [4], 68.4%; in the experiment on Tobacco mosaic virus [5], 47.5%; in the experiment with Tobacco mosaic virus [6], 48.7%.

For the molecule `COc1cc2c3c(c4cc(OC)c(OC)cc4c2cc1OC)CN1CCC[C@@H]1C3` [TYLOPHORINE], the Activity is 57.7% in the experiment on Tobacco mosaic virus [1]; 65.9% with Tobacco mosaic virus [2]; 56.4% in the experiment with Tobacco mosaic virus [3]; 62.6% with Tobacco mosaic virus [4]; 37.9% in the experiment on Tobacco mosaic virus [5]; 53.3% in the experiment on Tobacco mosaic virus [6].
